Assay results published in patent US20180289655A1, “Methods and Compositions for the Intravenous Administration of Fumarates for the Treatment of Neurological Diseases” (Biogen MA Inc., priority 2015, published 2018).
Entries after “also recorded” stand apart in the source; their conditions may differ. Structures can show the parent of a compound that is named as a salt.

How the values were obtained:
Nrf2 target genes = experiment: qRT-PCR of Nrf2 target genes, statements over all tested genes; format: in vivo, C57BL/6 mice
Method: For RNA preparation, frozen tissues were placed in 2 mL RNAse-free 96-well blocks with 1.5 mL QIAzol Lysis Reagent (QIAgen) and a 3.2 mm stainless steel bead (BioSpec Products, Bartlesville, Okla.). Tissues were disrupted for four cycles of 45 seconds in a Mini-Beadbeater (Biospec Products). RNA was extracted with chloroform and the aqueous phase was mixed with an equal volume of 70% ethanol. Extracted RNA was applied to RNeasy 96 plates and purified by the spin method according to the manufacturer's protocol (RNeasy 96 Universal Tissue Protocol, QIAgen, Hilden Germany).
Samples were reverse-transcribed into cDNA according to the manufacturer protocols using the High Capacity cDNA Reverse Transcription Kit (Life Technologies, Carlsbad, Calif.) and analyzed by qRT-PCR. Mouse target gene primers and 6-FAM™ dye-labeled TaqMan® MGB™ probes (Life Technologies) were used. Reactions containing 100 ng of cDNA, 900 nM of each primer, and 250 nM TaqMan probes were cycled on a QuantStudio 12 k-flex system (Life Technologies) once for 10 minutes at 95° C., followed by 40 cycles of 95° C. for 10 seconds and 60° C. for 1 minute. All samples were measured in triplicate with Gapdh as a normalizing gene. Taqman primer/probe sets from Life Technologies included: Akr1b8 (Mm00484314_m1); Gapdh (Mm03302249_g1); Gclc (Mm00802655_m1); Hmox1 (Mm00516005_m1); Nqo1 (Mm01253561_m1); and Osgin1 (Mm00660947_m1). Comparative CT method was used to calculate fold changes and samples were normalized relative to time-matched vehicle control.
At the 10-minute time point, 4 animals from each group were sacrificed, with plasma and tissues (brain, jejunum and kidney) collected to determine MMF exposure. Two hours after dosing, the remaining 4 animals were sacrificed, and plasma and tissues were collected. Tissue samples from the 2-hour time point were divided, with half of each sample used for MMF exposure analysis, and half for RNA extraction and qRT-PCR to evaluate the expression of Nrf2 target genes.
Ten minutes after dosing, 4 animals from each group were sacrificed, and plasma and tissues (brain, kidney, jejunum and spleen) were collected to quantify MMF exposure levels, as well as whole blood to perform CBC. Two hours post-dose, another 4 animals from each group were sacrificed, and plasma, whole blood, and tissues were collected. Tissue samples from the 2-hour time point were split, with half of each sample used for MMF exposure analysis, and half for RNA extraction/qRT-PCR to evaluate the expression of Nrf2 target genes. Six hours after dosing, the last 4 animals from each group were sacrificed, and whole blood and tissues were collected.
(§1) A CBC with differential panel was performed at 10 minutes post-last dose via facial vein bleeding, and at 2 hours after the last dose, pharmacodynamic Nrf2 transcriptional responses were analyzed in tissues from the same animals. Histopathology was also performed on regions of the tail in a pilot toxicology study.

blood cell populations = experiment: Complete blood count (CBC) with differential after IV dosing; format: in vivo, C57BL/6 mice
Method: Whole blood samples (250 μL) were collected in EDTA tubes at indicated time points after dosing, and were maintained at 4° C. until analysis for CBC with differential at Charles River Laboratories (analyzed within 24-36 hours from time of collection).
Statistical analyses on blood cell fractions were not completed due to the overall variability and low number of replicates for the samples in this pilot study.
as §1

[1] = MMF exposure in malonate model 30 min after last oral dose of DMF; format: in vivo, Sprague-Dawley rats; details: 30 minutes after last oral dose of DMF, all doses
Method: The study and blank brain samples was transferred into Tissue Tubes (TT1) (purchased from Covaris, Inc) and attached to a borosilicate glass tube and placed on dry ice for a minimum of 15 minutes. The samples were pulverized using the Cryoprep System (Covaris Inc.) and transferred to glass tube prior to homogenization. For every 1 part (i.e. 100 mg) of tissue, 2 parts (i.e. 200 μL) of water with 15 mg/mL NaF was added to each glass tube. The tissues were homogenized at 4° C. using Covaris E210 for approximately 3 minutes per sample. The Covaris settings were as follows: Duty Cycle 20%, Intensity 10, and Cycles/Burst 1000. After homogenization […] acetonitrile was added to each glass tube, which was equal to the volume of water added in previously. The homogenates were homogenized with the E210 for an additional 30 sec per sample. […]
Study plasma samples were on ice. […] A 50 μL aliquot of sample (study samples, blank control, calibration standard or QC sample) was manually transferred into a 96-well plate according to a pre-determined layout. […]
The HPLC system used consisted of an Agilent 1200 binary pump with a Leap CTC PAL refrigerated autosampler. […] The instrument was equipped with TIS source in negative mode and the analyte was monitored in the MRM mode. […] The concentrations for unknown samples were calculated against Standards. […]

[2] = Stability of DMF 20% Captisol solutions at ambient temperature (HPLC); format: physicochemical; details: for DMF area %: 20% Captisol
From the text: Samples stored at ambient temperature were pulled at predetermined time points (0, 2 and 7 days), and analyzed by HPLC. [table]

[3] = Study 3, DMF IV 30 mg/kg once daily x5, 2 hours after dosing
[4] = Study 3, DMF IV 30 mg/kg once daily x5
[5] = Study 3, DMF IV 30 mg/kg once daily x5, vs vehicle

COC(=O)/C=C/C(=O)OC [DMF, dimethyl fumarate]
Changes in gene expression, jejunum (Nrf2 target genes; Study 1, DMF IV 17.5 mg/kg, 2 hours): No significant changes in gene expression
Changes in transcript levels, kidney (Nrf2 target genes; Study 2, DMF IV 30 mg/kg, 2 hours): No significant changes
Genes significantly increased, brain (Nrf2 target genes; [3]): significant increase was observed in brain Hmox1, Osgin1, and Gclc levels
Genes significantly increased, kidney and jejunum (Nrf2 target genes; [3]): Significant increases were also observed in Akr1b8, Nqo1, and Osgin1 levels
Other transcripts in tissues analyzed (Nrf2 target genes; Study 3, DMF IV 30 mg/kg once daily x5, 2 hours post-last dose): generally unaffected
Reduction in white blood cell counts (neutrophils, lymphocytes, monocytes, eosinophils, basophils) (blood cell populations; Study 2, single IV dose DMF 30 mg/kg or MMF 27.08 mg/kg, 2-hour time point): did not specifically coincide with DMF or MMF treatment
Effect on red blood cells, hemoglobin, hematocrit, mean corpuscular volume, platelets (blood cell populations; Study 2, single IV dose DMF 30 mg/kg or MMF 27.08 mg/kg, 10 minutes, 2 and 6 hours): no effect on red blood cells, hemoglobin, hematocrit, mean corpuscular volume, or platelets
Effect on red blood cells, hemoglobin, hematocrit, mean corpuscular volume, platelets (blood cell populations; [4]): no effects on red blood cells, hemoglobin, hematocrit, mean corpuscular volume, or platelets
White blood cells (blood cell populations; [4]): general reduction in white blood cells
Decrease in lymphocytes (blood cell populations; [5]): 38%
Decrease in monocytes (blood cell populations; [5]): 60%
MMF concentration in plasma, brain and CSF [1]: significantly higher in the plasma as compared to both, the Brain and the CSF; also recorded: dose-dependent increase in plasma, CSF and brain concentration of MMF
Stability of DMF in 20% Captisol solution ([2]; 0.2 mg/ml): stable up to 2 days; also recorded: stable up to 2 d; also recorded: chemically and physically stable for 2 days
DMF area % ([2]; 0.2 mg/ml, 2 d): 99.5 area %
DMF area % ([2]; 0.2 mg/ml, 7 d): 97.2 area %
DMF area % ([2]; 0.2 mg/ml, initial): 99.7 area %
DMF area % ([2]; 4 mg/ml, 7 d): 99.4 area %
DMF area % ([2]; 4 mg/ml, initial): 99.7 area %
